Where “and” joins values, the source holds several entries; their conditions need not be identical. Equal entries are not always repeated.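 Compound exposure: 48 hours, 5 concentrations, 96-well plates. Here, GI50 denotes the concentration required for 50% inhibition of growth. The concentration for full growth arrest is given as TGI.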

Some test systems named below: SF-295 CNS; MCF7 breast; OVCAR-4 ovarian; SK-MEL-2 melanoma; RXF 393 renal; CAKI-1 renal; DU-145 prostate; SR leukemia; T-47D breast; 786-0 renal.
What all share (test): DTP human tumour cell line panel, 48 h

For `CNc1ncc2cc(-c3cc(NC(=O)NCCC(C)(C)C)c(F)cc3C)c(C)nc2n1`, the GI50 – broadly, the concentration that inhibits growth by half – in the assay with SF-295 CNS was 1.56 µM and 1.47 µM; with MCF7 breast, 4.98 µM and 8.58 µM; with OVCAR-4 ovarian, 0.543 µM and 0.785 µM; in the assay on SK-MEL-2 melanoma it was 0.0277 µM and 0.0426 µM; with RXF 393 renal it was 1.01 µM and 0.504 µM; in the assay with CAKI-1 renal it was 0.437 µM and 0.2 µM. For the same compound, the GI50 in the assay with DU-145 prostate was 0.535 µM and 0.685 µM; in the assay on SR leukemia, 0.811 µM and 3.13 µM; in the assay on T-47D breast it was 0.819 µM and 1.51 µM; with 786-0 renal, 0.811 µM and 0.81 µM. For the same compound, the TGI – broadly, the concentration giving total growth inhibition – was > 100 µM in the assay with SF-295 CNS; > 100 µM with MCF7 breast; > 100 µM in the assay with OVCAR-4 ovarian; 0.143 µM and 0.265 µM in the assay on SK-MEL-2 melanoma; 5.99 µM and > 6.39 µM in the assay with RXF 393 renal; > 100 µM in the assay with CAKI-1 renal. The TGI in the assay on DU-145 prostate is > 100 µM; in the assay on SR leukemia it was > 75.2 µM; in the assay on T-47D breast it was 25.1 µM and > 10 µM; with 786-0 renal, > 100 µM.

For the compound `CC/C(=N/N=C(N)N)c1ccc(NC(=O)Nc2ccc(/C(CC)=N/N=C(N)N)cc2)cc1`, the GI50 in the assay with SF-295 CNS was 3.99 µM; with MCF7 breast it was 3.13 µM; with OVCAR-4 ovarian, 6.08 µM; with SK-MEL-2 melanoma it was 4.03 µM; in the assay on RXF 393 renal, 7.81 µM; in the assay on CAKI-1 renal, 15.1 µM. Besides, the GI50 was 5.02 µM in the assay on DU-145 prostate, 2.44 µM with SR leukemia, 5.81 µM with T-47D breast and 9.02 µM with 786-0 renal. The TGI is 19 µM with SF-295 CNS; > 100 µM in the assay on MCF7 breast; 44.8 µM in the assay on OVCAR-4 ovarian; 31.2 µM with SK-MEL-2 melanoma; 33.2 µM with RXF 393 renal; 39.4 µM in the assay on CAKI-1 renal. Moreover, the TGI is 30.5 µM with DU-145 prostate, 14.9 µM in the assay on SR leukemia, 74.1 µM in the assay on T-47D breast and 30.9 µM in the assay with 786-0 renal.

With `COc1ccc(-c2nc3sccn3c2-c2ccnc(NCCCNS(=O)(=O)c3ccc(F)cc3)n2)cc1`, the GI50 with SF-295 CNS is 2.8 µM; with MCF7 breast, 2.48 µM; with OVCAR-4 ovarian, 2.49 µM; in the assay with SK-MEL-2 melanoma it was 2.32 µM; in the assay with RXF 393 renal, 3.13 µM; in the assay on CAKI-1 renal, 2.5 µM. Also, the GI50 in the assay on DU-145 prostate was 3.02 µM; in the assay with SR leukemia it was 3.17 µM; in the assay on T-47D breast, 0.866 µM; in the assay on 786-0 renal, 5.13 µM. The TGI was determined as 8.55 µM with SF-295 CNS; 8.66 µM in the assay on MCF7 breast; 8.4 µM with OVCAR-4 ovarian; 6.75 µM in the assay on SK-MEL-2 melanoma; 13.1 µM in the assay on RXF 393 renal; 7.29 µM in the assay with CAKI-1 renal. Besides, the TGI is > 100 µM in the assay on DU-145 prostate, > 100 µM in the assay on SR leukemia, 4.87 µM with T-47D breast and > 100 µM with 786-0 renal.

For `OCc1ccc(N(Cc2ccc(F)cc2)CC2CCC2)cc1Cl`, the GI50 is 4.06 µM in the assay with SF-295 CNS; 3.25 µM with MCF7 breast; 2.18 µM in the assay with OVCAR-4 ovarian; 11.2 µM in the assay on SK-MEL-2 melanoma; 6.07 µM in the assay on RXF 393 renal; 2.04 µM in the assay with CAKI-1 renal. Also, the GI50 was 15 µM in the assay with DU-145 prostate, 11.7 µM in the assay with SR leukemia, 2.11 µM in the assay on T-47D breast and 12.3 µM in the assay with 786-0 renal. Also, the TGI stood at 17.5 µM in the assay with SF-295 CNS; 16.3 µM in the assay on MCF7 breast; 14.6 µM with OVCAR-4 ovarian; 25.2 µM with SK-MEL-2 melanoma; 18 µM with RXF 393 renal; 8.51 µM in the assay with CAKI-1 renal. The TGI in the assay with DU-145 prostate came to 28.5 µM; in the assay with SR leukemia, 29 µM; in the assay on T-47D breast, 12.2 µM; in the assay on 786-0 renal, 25.8 µM.

For the compound `CCc1ccc([O-])c(C=NCCCN(C)CCCN=Cc2cc(C)ccc2[O-])c1.[Co+3].[N-]=[N+]=[N-]`, the GI50 with SF-295 CNS was 28.1 µg/mL and 16.9 µg/mL; in the assay on MCF7 breast, 50 µg/mL and > 150 µg/mL; in the assay on OVCAR-4 ovarian it was 50 µg/mL and 90.8 µg/mL; in the assay with SK-MEL-2 melanoma, 50 µg/mL and 44.7 µg/mL; with RXF 393 renal it was 5.76 µg/mL and 20.4 µg/mL; with CAKI-1 renal it was 50 µg/mL and 66.9 µg/mL. Moreover, the GI50 with DU-145 prostate is 11.6 µg/mL; with SR leukemia, 36.4 µg/mL; in the assay on T-47D breast it was 40 µg/mL; in the assay on 786-0 renal it was 43.1 µg/mL. The TGI in the assay with SF-295 CNS was 50 µg/mL and 48.1 µg/mL; in the assay with MCF7 breast, 50 µg/mL and > 150 µg/mL; in the assay with OVCAR-4 ovarian, 50 µg/mL and > 150 µg/mL; in the assay with SK-MEL-2 melanoma, 50 µg/mL and 135 µg/mL; with RXF 393 renal, 35.5 µg/mL and 46 µg/mL; in the assay with CAKI-1 renal, 50 µg/mL and > 150 µg/mL. Besides, the TGI in the assay on DU-145 prostate, in the assay on SR leukemia, in the assay with T-47D breast and in the assay with 786-0 renal was 50 µg/mL throughout.

In the case of `O=C1NC(=N[C@H](CO)c2ccccc2)S/C1=C\c1ccc2ncccc2c1`, the GI50 was 4.69 µM in the assay with SF-295 CNS; 4.57 µM with MCF7 breast; 2.67 µM in the assay with OVCAR-4 ovarian; 5.49 µM in the assay with SK-MEL-2 melanoma; 4.04 µM in the assay on RXF 393 renal; 3.75 µM with CAKI-1 renal. The GI50 is 3.3 µM in the assay on DU-145 prostate, 0.786 µM in the assay with SR leukemia, 4.18 µM in the assay with T-47D breast and 7.31 µM with 786-0 renal. Moreover, the TGI is > 20 µM with SF-295 CNS; > 25 µM with MCF7 breast; > 25 µM in the assay on OVCAR-4 ovarian; 14.3 µM in the assay with SK-MEL-2 melanoma; 18.1 µM in the assay on RXF 393 renal; > 16 µM in the assay with CAKI-1 renal. Further, the TGI in the assay on DU-145 prostate is > 21.3 µM; with SR leukemia it was 4.85 µM; in the assay with T-47D breast, > 24.1 µM; in the assay on 786-0 renal, > 25 µM.

Consider `c1cc2c(c(NC3=NCCN3)c1)CCCC2`, for which the TGI in the assay with SF-295 CNS, with MCF7 breast, in the assay on OVCAR-4 ovarian, in the assay on SK-MEL-2 melanoma, with RXF 393 renal and with CAKI-1 renal was > 100 µM each time. Besides, the TGI in the assay with DU-145 prostate, in the assay with SR leukemia, in the assay with T-47D breast and with 786-0 renal was > 100 µM throughout.

For the compound `C=C1C(=O)C2(C)OC2(C)C1C(=O)O` (stereo not given), the TGI in the assay on SF-295 CNS, in the assay on MCF7 breast, in the assay on OVCAR-4 ovarian, in the assay on SK-MEL-2 melanoma, in the assay on RXF 393 renal and in the assay on CAKI-1 renal was > 100 µM in each case. Moreover, the TGI in the assay on DU-145 prostate, with SR leukemia, in the assay with T-47D breast and with 786-0 renal was > 100 µM each time.

The values above are taken from PubChem BioAssay (NCI).
